# Experiments:
# [1] = tested on: testicular steriodogenosis; assay: Inhibitory activity on testicular steroidogenesis in a patient with prostate cancer, intranasal twice a day; type: in vivo, human; settings: 500 μg intranasally twice a day
# From the text: The inhibitory activity of [D Ser (tbu)^6 des Gly NH2^10 ] […] The results are reported in the graphs of sheet 2 of the Figures.
# [2] = tested on: testicular steroidogensis; assay: Inhibitory activity against testicular steroidogenesis in healthy men, single intranasal dose; type: in vivo; settings: for steroid/testosterone level on the fourth day after administration: fourth day (until 6th day)
# Description: The inhibitory activity of [D Ser (tbu)^6 of des Gly NH2^10 ] LH-RH ethylamide (described in German application Ser. No. 2,438,350) against testicular steroidogensis in men in good health was determined on men in good health aged 30 to 40 years. The said product was administered intranasally at a dose of 500 μg in a few drops of distilled water at 8 A.M. on the third day of the test. For 2 days prior to the treatment and for 6 days after the treatment, samples of blood were taken daily at 8 A.M., 3 P.M. and 10 P.M. On the day of administration of the LH-RH agonist, blood samples were taken at 11 A.M. and 6 P.M.
# The seric concentrations of LH and FSH were measured by radioimmuno-logic dosages with double antibodies and the antibodies for measuring LH and FSH were furnished by the National Pituitary Agency of N.I.H. in Bethesda, Md. The seric concentrations of steroids was measured by radioimmuno-logic dosages in which one ml of serum was extracted with ether and the steroids were separated on a LH-20 column before measuring with radioimmuno-logic dosages. The radioimmuno-logic dosage results were determined by a program derived from model II of Rodbard et al [Second Karolinska Symposium on Research Methods in Reproductive Endrocrinology, Diczfalusky Editor, Copenhague (1970), p. 79-103]. The statistical significance was determined by the "multiple level test" of Duncan-Kramer [Kramer, Biometrics, Vol 12 (1956), p. 307]. The results are shown in the graphs on sheet 1 of the Figures filed herewith.
# ovarian steroidogenosis = assay: Inhibitory activity on ovarian steroidogenesis in women, intranasal; type: in vivo; settings: for reduction of seric levels of progesterone compared to the controls: typical subject (sheet 3)
# Description: The inhibitory activity of [D Ser (tbu)^6 des Gly NH2^10 ] LH-RH ethylamide on ovarian steroidogenosis in women was determined on 6 women aged 26 to 35 years with normal and regular menstrual cycles and without prior endocrinal or gynecological problems. […] Two drops of a solution containing 500 μg of [D Ser (tbu)^6 des Gly NH2^10 ] LH-RH ethylamide were deposited on each nostril at 8 A.M. and 5 P.M. of a day between the 4th and 9th day after the peak of LH-day 0. Daily blood samples were taken between 4 and 6 P.M. to measure seric levels of LH, FSH, progesterone and estradiol which were determined by radioimmuno-logictests with double antibodies. The antibodies to measure LH and FSH were furnished by the National Pituitory Agency of N.I.H. of Bethesda, Md.
# Estradiol and progesterone were measured with highly specific antibodies developed against 7-(O-carboxymethyl)-oxime of estradiol and 12-(O-carboxymethyl)-oxime of progesterone, respectively [3H]17β-estradiol and ^125 I-progesterone-12-[O-carboxymethyl)-oxime] used as tracers. The serum was extracted with benzene and the steroids were separated with a LH-20 column before the determination. The radioimmunological results were exploited by the program derived from model II of Rodbard and Lewald as in Example 1 and the statistical significance was measured by the multiple level test of Ducan-Kramer of Example 1. The results are shown in the graphs of sheets 3 to 5 of the Figures.
# [3] = human, single intranasal dose 500 μg
# [4] = men, intranasal 500 μg, 3rd day following administration
compound,measurement,setting,value
CCNC(=O)[C@@H]1CCCN1C(=O)[C@H](CCCNC(=N)N)NC(=O)[C@H](CC(C)C)NC(=O)[C@@H](COC(C)(C)C)NC(=O)[C@H](Cc1ccc(O)cc1)NC(=O)[C@H](CO)NC(=O)[C@H](Cc1c[nH]c2ccccc12)NC(=O)[C@H](Cc1c[nH]cn1)NC(=O)[C@@H]1CCC(=O)N1 [[D Ser (tbu)^6 des Gly NH2^10] LH-RH ethylamide],level of androgenic steroids,[1],diminution
same,level of testosterone,[1]; two weeks of treatment,stabilized at a very low level
same,duration of the drop of seric levels of testicular steroids (testosterone and its precursors),[2]; [3],3 days
same,diminution of the level of testosterone,"[2]; human, single intranasal dose 500 μg, 3rd day following administration",50%
same,steroid/testosterone level on the fourth day after administration,[2]; [3],returned to normal
same,steroid/testosterone level on the fourth day after administration,"[2]; human, single intranasal dose 500 μg, listed as the peptide",return to normal levels
same,LH and FSH plasmatic levels,"[2]; men, intranasal 500 μg",increase
same,concentration of 17-OH-progesterone relative to initial control values,[2]; [4],40%
same,concentration of testosterone relative to initial control values,[2]; [4],50%
same,"seric concentration of pregnenolone, 17-OH-pregnenolone, progesterone, 17-OH-progesterone, Δ5-androstene-3β,17β-diol and testosterone","[2]; men, intranasal 500 μg, day of treatment",increased
same,"level of seric progesterone, course",ovarian steroidogenosis; 2 cycles of post-treatment,return to normal
same,"level of seric progesterone, course",ovarian steroidogenosis; 2 cycles of treatment,accelerated diminution
same,reduction of the level of progesterone compared to the controls,"ovarian steroidogenosis; 12 cycles of treatment (sheet 5), scale 13 to 127%",46%
same,progesterone level as % of pretreatment cycles (base 100%),ovarian steroidogenosis; cycles of post-treatment (12 cycles),99%
same,progesterone level as % of pretreatment cycles (base 100%),ovarian steroidogenosis; cycles of treatment (12 cycles),46%
same,reduction of seric levels of progesterone compared to the controls,ovarian steroidogenosis; first cycle of treatment,13%
same,reduction of seric levels of progesterone compared to the controls,ovarian steroidogenosis; second cycle of treatment,34%

# Reference: patent publication US4728640A, “Treatment of dysmenorrhea” (Roussel Uclaf, priority 1985, dated 1988)
